Values after ≈ are worked out from the molar mass of the structure shown. Values joined by “and” are separate entries in the source; they are usually repeats but may differ in a detail not shown here. Identical values can stand only once. Like-named read-outs stand apart in the source and are kept apart here. Residues, ends and D or L forms follow the SMILES beside them. *: point of attachment. Myristoyl = CCCCCCCCCCCCCC(=O)*; Lauroyl = CCCCCCCCCCCC(=O)*; Octanoyl = CCCCCCCC(=O)*; Hexanoyl = CCCCCC(=O)*
How the values were obtained:
S.aureus = type: cell-based, S. aureus (ATCC 25923)
Protocol: (§1) The antimicrobial activity of a lipopeptide can be determined using a method known in the art, for example, the broth-dilution method. Essentially, this method involves the growth of a microorganism in a liquid medium until it reaches the logarithmic phase. The test lipopeptide is serially diluted with growth medium for the test bacterium in the wells of a multiwell plate. An optimal concentration of the microorganism is added to the wells containing the serially diluted lipopeptide. The plate is incubated in a thermostat at a temperature of 37° C. for a time sufficient for the microorganism to grow. The growth of the microorganism, evaluated in comparison with a negative control (microorganism grown in the absence of the lipopeptide), is determined by detecting the absorbance of the solution containing the bacterium, for example, at 605 nm.
(§2) The minimum inhibitory concentration values (MICs) of the lipopeptides and of conventional antibiotics were determined by the broth microdilution susceptibility test following the guidelines of the NCCLS with mid-log phase cultures. Serial two-fold dilutions of each peptide were prepared (final volume of 50 ul) in 96-well polypropylene microtiter plates (UNIFO, Treviso, Italy) with MH broth for bacteria and RPMI-1640 for fungi. Each dilution series included con-trol wells without peptide. A total of 50 ul of the adjusted inoculum (approximately 5 × 10^5 cells/ml for bacteria or 5 × 10^4 cells/ml for fungi, in the appropriate medium) was added to each well. To evaluate the MIC, microtiter plates with bacteria were incubated at 37° C overnight, while those with fungi were incubated at 30° C for 48 h. The fatty acid tested were: C6 (hexanoic),C8 (octanoic),C10 (decanoic),C12 (lauric),C14 (mystiric).
as §2, with “h.” for “h. The fatty acid tested were: C6 (hexanoic),C8 (octanoic),C10 (decanoic),C12 (lauric),C14 (mystiric).”

P.aeruginosa = type: cell-based, Pseudomonas aeruginosa ATCC 27853
Protocol: as §1, §2
as §2, with “control” for “con-trol”, “h.” for “h. The fatty acid tested were: C6 (hexanoic),C8 (octanoic),C10 (decanoic),C12 (lauric),C14 (mystiric).”

E.coli = type: cell-based, Escherichia coli ATCC 25922
Protocol: as §1, §2
as §2, with “control” for “con-trol”, “h.” for “h. The fatty acid tested were: C6 (hexanoic),C8 (octanoic),C10 (decanoic),C12 (lauric),C14 (mystiric).”

C.albicans SC5314 = test: MIC against filamentous yeast strain, broth microdilution susceptibility test (NCCLS); type: cell-based; conditions: RPMI-1640, 30° C for 48 h
Protocol: as §2, with “Italy)” for “Italy) with MH broth for bacteria and”, “h.” for “h. The fatty acid tested were: C6 (hexanoic),C8 (octanoic),C10 (decanoic),C12 (lauric),C14 (mystiric).”
(§3) This example was performed on two different strain of C.albicans. Both strain are human clinical isolate recovered from a patient with generalized candidiasis.

C. albicans ATCC 90029 = type: cell-based; conditions: RPMI-1640, 30° C for 48 h
Protocol: as §2, with “Italy)” for “Italy) with MH broth for bacteria and”, “h.” for “h. The fatty acid tested were: C6 (hexanoic),C8 (octanoic),C10 (decanoic),C12 (lauric),C14 (mystiric).”
as §3

Cytotoxicity, MTT assay = type: cell-based; conditions: human, A549 cells (lung cancer epithelial cell line), treated for 24-72 h, read-out: LC50 (the source's name)
Protocol: In the present invention, cytotoxicity of the lipopeptides against a epithelial cell line was also determined, for example, A549 cells (lung cancer). Cells were cultured in the presence and in the absence of peptides and the damage to the membrane was evaluated by the vital stain MTT.
The colorimetric 3-(4,5-dimethylthiazol-2-yl)-2,5-diphenyl tetrazolium bromide (MTT) assay was performed to assess the metabolic activity of cells plated into 96-well culture plates (10 5 cell/well) and treated with 0.5-25 µM of in complete medium for 24-72 h. At the end of treatments, fullerenes containing medium were removed and replaced with fresh medium; for the cytotoxic assay, 20 µL stock MTT (5 mg/mL) was added to each well, and cells were then incubated for 4 hr at 37 °C. The converted MTT dye was solubilised with acidic isopropanol (0.04 N HCl in absolute isopropanol). Absorbance was measured at 540 nm and 630 nm using a microplate reader (Automated Microplate Reader EL311, BIO-TEK Instruments, Vermont, USA). All measurements were done in triplicate and each experiment was repeated at least three times.

[1] = Example 1, effect of fatty acid length on RFWR, MH broth, 37° C overnight

SMILES: N=C(N)NCCC[C@H](NC(=O)[C@H](Cc1c[nH]c2ccccc12)NC(=O)[C@H](Cc1ccccc1)NC(=O)[C@@H](N)CCCNC(=N)N)C(N)=O [Lipopeptide 0] (H-RFWR-NH2; N-terminus and C-terminus assumed)
- Bacteria (MIC, ug/ml) S.aureus (S.aureus): >400 µg/mL
- Bacteria (MIC, ug/ml) P.aeruginosa (P.aeruginosa): >400 µg/mL
- Bacteria (MIC, ug/ml) E.coli (E.coli): >400 µg/mL

SMILES: CCCCCCCCCCCC(=O)N[C@@H](CCCNC(=N)N)C(=O)N[C@@H](CCCNC(=N)N)C(=O)N[C@@H](Cc1ccccc1)C(=O)N[C@@H](Cc1c[nH]c2ccccc12)C(N)=O [Lipopeptide 14] (Lauroyl-RRFW-NH2)
- MIC against P. aeruginosa (P.aeruginosa): 14.7 µM
- MIC against P. aeruginosa (P.aeruginosa; MH broth, 37° C overnight): 12.5 µg/mL
- MIC against E. coli (E.coli): 14.7 µM
- MIC against E. coli (E.coli; MH broth, 37° C overnight): 12.5 µg/mL

SMILES: CCCCCCCCCCCC(=O)N[C@@H](CCCNC(=N)N)C(=O)N[C@@H](CCSC)C(=O)N[C@@H](Cc1c[nH]c2ccccc12)C(=O)N[C@@H](CCCNC(=N)N)C(N)=O [Lipopeptide 8, Lau-RMWR-NH2] (Lauroyl-RMWR-NH2)
- MIC against C.albicans SC5314 strain (C.albicans SC5314): 12.5 µg/mL (≈ 15.1 µM)

SMILES: CCCCCCCCCCCC(=O)N[C@@H](CCCNC(=N)N)C(=O)N[C@@H](Cc1ccccc1)C(=O)N[C@@H](Cc1c[nH]c2ccccc12)C(=O)N[C@@H](CCCNC(=N)N)C(N)=O [Lipopeptide 4] (Lauroyl-RFWR-NH2)
- Bacteria (MIC, ug/ml) S.aureus (S.aureus): 3.125 µg/mL
- Bacteria (MIC, ug/ml) P.aeruginosa (P.aeruginosa): 12.5 µg/mL
- Bacteria (MIC, ug/ml) E.coli (E.coli): 12.5 µg/mL

SMILES: CCCCCCCCCCCCCC(=O)N[C@@H](CCCNC(=N)N)C(=O)N[C@@H](Cc1ccccc1)C(=O)N[C@@H](Cc1c[nH]c2ccccc12)C(=O)N[C@@H](CCCNC(=N)N)C(N)=O [Lipopeptide 5] (Myristoyl-RFWR-NH2)
- Bacteria (MIC, ug/ml) S.aureus (S.aureus): 6.125 µg/mL
- Bacteria (MIC, ug/ml) P.aeruginosa (P.aeruginosa): 50 µg/mL
- Bacteria (MIC, ug/ml) E.coli (E.coli): 25 µg/mL

SMILES: CCCCCC(=O)N[C@@H](CCCNC(=N)N)C(=O)N[C@@H](Cc1ccccc1)C(=O)N[C@@H](Cc1c[nH]c2ccccc12)C(=O)N[C@@H](CCCNC(=N)N)C(N)=O [Lipopeptide 1] (Hexanoyl-RFWR-NH2)
- Bacteria (MIC, ug/ml) S.aureus (S.aureus; [1]): >400 µg/mL
- Bacteria (MIC, ug/ml) P.aeruginosa (P.aeruginosa; [1]): >400 µg/mL
- Bacteria (MIC, ug/ml) E.coli (E.coli; [1]): >400 µg/mL

SMILES: CCCCCCCCCCCC(=O)N[C@@H](CCCNC(=N)N)C(=O)N[C@@H](CCCNC(=N)N)C(=O)N[C@@H](Cc1ccccc1)C(=O)N[C@@H](Cc1c[nH]c2ccccc12)C(N)=O [Lipopeptide 14, Lau-RRFW-NH2] (Lauroyl-RRFW-NH2)
- MIC against C.albicans SC5314 strain (C.albicans SC5314): 12.5 µg/mL (≈ 14.8 µM)

SMILES: CCCCCCCC(=O)N[C@@H](CCCNC(=N)N)C(=O)N[C@@H](Cc1ccccc1)C(=O)N[C@@H](Cc1c[nH]c2ccccc12)C(=O)N[C@@H](CCCNC(=N)N)C(N)=O [Lipopeptide 2] (Octanoyl-RFWR-NH2)
- Bacteria (MIC, ug/ml) S.aureus (S.aureus): 100 µg/mL
- Bacteria (MIC, ug/ml) P.aeruginosa (P.aeruginosa): 100 µg/mL
- Bacteria (MIC, ug/ml) E.coli (E.coli): 100 µg/mL

SMILES: CCCCCCCCCCCC(=O)N[C@@H](CCCNC(=N)N)C(=O)N[C@@H](CCCNC(=N)N)C(=O)N[C@@H](Cc1ccccc1)C(=O)N[C@@H](Cc1c[nH]c2ccccc12)C(=O)N[C@@H](CCCNC(=N)N)C(=O)N[C@@H](CCCNC(=N)N)C(N)=O [Lipopeptide 16, Lau-RRFWRR-NH2] (Lauroyl-RRFWRR-NH2)
- MIC against C. albicans ATCC strain (C. albicans ATCC 90029): 1.56 µg/mL (≈ 1.35 µM)

SMILES: CCCCCCCCCCCC(=O)N[C@@H](CCCNC(=N)N)C(=O)N[C@H](C(=O)N[C@@H](Cc1c[nH]c2ccccc12)C(=O)N[C@@H](CCCNC(=N)N)C(N)=O)[C@@H](C)CC [Lipopeptide 6, Lau-RIWR-NH2] (Lauroyl-RIWR-NH2)
- MIC against S.aureus (S.aureus): 1.77 µM (≈ 1.44 µg/mL)
- MIC against P. aeruginosa (P.aeruginosa): 14.7 µM
- MIC against P. aeruginosa (P.aeruginosa; MH broth, 37° C overnight): 12.5 µg/mL
- MIC against E. coli (E.coli): 7.39 µM
- MIC against C.albicans SC5314 strain (C.albicans SC5314): 12.5 µg/mL (≈ 15.4 µM)
- CC50 (Cytotoxicity, MTT assay): 100 µg/mL and ~118 µM

SMILES: CCCCCCCCCCCC(=O)N[C@@H](CCCNC(=N)N)C(=O)N[C@@H](Cc1ccccc1)C(=O)N[C@@H](Cc1c[nH]c2ccccc12)C(=O)N[C@@H](CCCNC(=N)N)C(N)=O [Lipopeptide 3, Lau-RFWR-NH2] (Lauroyl-RFWR-NH2)
- MIC against S.aureus (S.aureus): 3.66 µM (≈ 3.09 µg/mL)
- Bacteria (MIC, ug/ml) S.aureus (S.aureus; [1]): 12.5 µg/mL
- MIC against P. aeruginosa (P.aeruginosa): 14.7 µM
- Bacteria (MIC, ug/ml) P.aeruginosa (P.aeruginosa; [1]): 50 µg/mL
- MIC against P. aeruginosa (P.aeruginosa; MH broth, 37° C overnight): 12.5 µg/mL
- MIC against E. coli (E.coli): 7.39 µM
- Bacteria (MIC, ug/ml) E.coli (E.coli; [1]): 25 µg/mL
- CC50 (Cytotoxicity, MTT assay): 100 µg/mL and ~118 µM
